The values below come from PubChem BioAssay AID179 (DTP/NCI, 2004).

pEC50, pIC50: −log10 of the molar value. “And” between values parts separate entries of the source, which are not always exact repeats. Equal entries are not always repeated. The source made the active and inactive calls.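 The calls were made as follows: active = compounds giving half or more protection of infected cells from virus-caused growth loss, again on retest; inactive = the rest.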

For this assay, the system named is CEM cells HIV-1 protection, formazan growth assay. In words: NCI AIDS Antiviral Assay. Conditions: for pIC50: measured here: growth of uninfected CEM cells. The procedure, abridged: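 CEM (human) cells, HIV-1 infected vs uninfected, 5-point dosing, formazan growth read-out. Retest threshold 50% protection.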

For orientation: pEC50 means the negative decadic logarithm of the EC50, by convention in mol/L. A word on the pIC50: it is the IC50 on a negative log10 scale, so that one unit is a factor of ten. A high value points to a low IC50. Turning to `Cc1nn(C(=O)c2ccccc2O)c2c1C(c1ccc3ccccc3c1O)SC(N)=N2` (configuration not stated), the pEC50 is less than 5.70 and the pIC50 was 5.86.

As for `Cc1cc(O)ccc1C1(c2ccc(F)cc2)OC(=O)c2ccccc21` (configuration not stated), the result was inactive.

In the case of `CC(C)=CCOc1cc(O)c2c(c1)C(=O)c1cc(C)cc(O)c1C2=O`, the pEC50 is less than 4.30 and the negative-log IC50 (pIC50) was less than 4.30.

Take `COc1cc(C2c3cc4c(cc3[C@H](NS(C)(=O)=O)C3COC(=O)[C@H]23)OCO4)cc(OC)c1OC` (some centres not stated): the result was inactive.

Consider `Cn1nccc2c(=O)n(C)c(=O)nc1-2`, for which the pEC50 is less than 3.70 and the pIC50 was less than 3.70.

In the case of `N#CC1=C(O)NC(O)=C(C#N)C12C(=O)Nc1ccccc12`, the pEC50 is less than 3.10 and the pIC50 is less than 3.10.

As for `O=C1C(=O)N(C(=O)c2ccc(Cl)c(Cl)c2)c2ccccc21`, the result was inactive.

As for `CC(C)CCCC(C)[C@H]1CC[C@H]2[C@@H]3CC[C@H]4C[C@@H](CCCC(c5cc(Cl)c(OCc6ccc(C(=O)O)cc6)c(C(=O)O)c5)c5cc(Cl)c(OCc6ccc(C(=O)O)cc6)c(C(=O)O)c5)CC[C@]4(C)[C@H]3CC[C@]12C` (some centres not stated), the pEC50 was 4.69 and 5.47; the negative logarithm of the IC50 (pIC50) is < 3.70 and 4.70.

Consider `CC1(C)CNC(=O)C(C)(C2(C)NC(C)(C)CNC2=O)N1` (configuration not stated), for which the pEC50 is less than 3.70 and the negative logarithm of the IC50 (pIC50) is less than 3.70.

Turning to `O=C1/C(=C/c2ccc(Cl)cc2)CCCc2ccccc21`, the pEC50 is less than 3.70 and the negative-log IC50 (pIC50) is 4.64.

On to `NC(=O)CN1CCN(CCCN2c3ccccc3Sc3ccc(Cl)cc32)CC1`, for which the pEC50 was less than 3.70 and the pIC50 is 4.51.

In the case of `CCOC(=O)/C(=C\c1ccccc1Cl)P(=O)(OCC)OCC`, the pEC50 was less than 4.68 and the pIC50 was 4.93.

With `NNC(=O)/C(=C/c1ccc(Cl)c(Cl)c1)NC(=O)c1ccccc1`, the pEC50 was less than 3.85 and the negative-log IC50 (pIC50) is less than 3.85.

For `O=C(/C=C/c1ccc(O)cc1)OCC1OC(Oc2cc(O)c3c(c2)OC(c2ccc(O)cc2)CC3=O)C(O)C(O)C1O` (configuration not stated), the pEC50 was less than 4.29 and the pIC50 is 4.56.

As for `CCC12CCCN(CCBr)C1c1c(n(C)c3ccccc13)C(C(=O)OC)C2` (configuration not stated), the pEC50 was less than 4.56 and the negative logarithm of the IC50 (pIC50) was 4.87.

As for `CC(=O)N1c2ccccc2C2=NN=C(N(C)C)SC21` (configuration not stated), the outcome was inactive.

`NC(=O)N/N=C1/CCN2CCCc3cccc1c32`: the pEC50 was less than 3.70 and the pIC50 is less than 3.70.

In the case of `COc1cc2c(c(OC)c1OC)C(c1ccc3c(c1)OCO3)C1COC(=O)C1C2` (configuration not stated), the pEC50 was less than 4.04 and the pIC50 is less than 4.04.

For the molecule `COC(=O)C1=C(SC)SC2(C(=O)OC)C3C=C(C)C4C(N13)C42C(=O)OC` (configuration not stated), the pEC50 is less than 5.44 and the pIC50 was less than 5.44.

As for `CC1=CCC23C(C1)OC(Br)(C=CC2(C)O)C3(C)C` (configuration not stated), the outcome was inactive.

Turning to `CC(C)(C)OC(=O)NCC(C#N)CNC(=O)OC(C)(C)C`, the pEC50 is less than 3.22 and the pIC50 was less than 3.22.

On to `O=C(C/C=C/c1ccccc1)c1ccccc1`, for which the pEC50 is less than 3.70 and the pIC50 was 5.00.

For `CC1=Nc2ccc(Cl)cc2N=C(C)C1`, the pEC50 is less than 3.70 and the pIC50 is 3.81.

On to `CC(C)=CCc1c(-c2ccc(O)cc2OC2OC(CO)C(O)C(O)C2O)oc2c3c(cc(O)c2c1=O)OC(C)(C)C=C3` (configuration not stated), for which the pEC50 is less than 4.23 and the negative-log IC50 (pIC50) is less than 4.23.

`CCOC(=O)C1C=CC(C)C2CCCCC12N1CCCC1` (configuration not stated): the outcome was inactive.

As to `O=C1C2CC[C@@H]3C(=O)C(Cl)(Cl)[C@@H]3CCC2C1(Cl)Cl` (some centres not stated), the pEC50 is less than 3.70 and the pIC50 was less than 3.70.

Regarding `COC(=O)C(/C(=N/N)C(=O)Nc1ccc(C)c(C)c1)c1nc2ccc(Cl)cc2[nH]c1=O` (configuration not stated), the pEC50 is less than 3.67 and the negative-log IC50 (pIC50) is 3.87.

As to `C=C1C(=O)O[C@H]2C3OC3(C)CC/C=C(/C(=O)OC)[C@@H](OC(C)=O)[C@H](OC(=O)C3(C)OC3C)[C@H]12` (some centres not stated), the result was inactive.

For `C/C(=N\NC(=O)c1cccc2c(=O)c3ccccc3[nH]c12)C1CC[C@H]2[C@@H]3CCC4=C/C(=N\NC(=O)c5cccc6c(=O)c7ccccc7[nH]c56)CC[C@]4(C)[C@H]3CC[C@]12C` (some centres not stated), the pEC50 was less than 4.30 and the negative-log IC50 (pIC50) was less than 4.30.

Take `O=[N+]([O-])C(=C/C1CCCCC1)/C(=C\C1CCCCC1)[N+](=O)[O-]`: the pEC50 is less than 3.70 and the pIC50 is 5.34.

Turning to `COC(=O)c1ccc(-n2c(C)nc(=O)c(-c3ccccc3)c2C)cc1`, the pEC50 is less than 4.00 and the pIC50 is less than 4.00.

For the molecule `O=C1C(=O)C(Br)(c2ccccc2)C(=O)C1c1ccccc1` (configuration not stated), the pEC50 was less than 3.70 and the pIC50 is less than 3.70.

`O=C(O)c1ccccc1C(=O)OC1CC2CC1C1OCC21` (configuration not stated): the pEC50 was less than 3.51 and the pIC50 is less than 3.51.

Turning to `CN(C)c1ccc(/C=C/C(=O)[O-])cc1.CN(C)c1ccc(/C=C/C(=O)[O-])cc1.[Cu+2]`, the pEC50 was less than 5.07 and the pIC50 is less than 5.07.

For `CC(C)(C)OC(=O)NC12C3C4C1C1C2C3C41NC(=O)OC(C)(C)C` (configuration not stated), the pEC50 is less than 3.70 and the pIC50 was 4.27.

As to `COc1cc(NC=O)c2c(c1)SCC(=O)N2`, the pEC50 is less than 3.70 and the negative logarithm of the IC50 (pIC50) was 3.87.

For the molecule `O=C1C=C/C(=C/[C@H]2SSC=C[C@]23C=CC(=O)C3)C1`, the pEC50 was less than 3.70 and the negative logarithm of the IC50 (pIC50) was 5.58.

Turning to `Cn1nc2c(c1N)Cc1c(nn(C)c1N)-c1ccccc1-2`, the pEC50 was less than 3.70 and the pIC50 is 3.72.

`CN1c2ccccc2S(=O)(=O)n2c(COc3ccccc3)nnc21`: the pEC50 was less than 3.70 and the pIC50 is less than 3.70.

Turning to `CCOC(=O)CN1C(=O)Cc2ccccc21`, the pEC50 was less than 3.70 and the pIC50 is 4.01.

For the molecule `Cc1cc(Cl)ccc1NC(=O)CC1SC(=NC(=O)c2ccccc2Cl)NC1=O` (configuration not stated), the pEC50 was less than 4.78 and the pIC50 is less than 4.78.

As to `Nc1nn2cc3c(nc2c1N=Nc1ccccc1)CCCCC3`, the pEC50 is less than 3.70 and the negative-log IC50 (pIC50) was less than 3.70.

As to `C#CCNC(=O)NC(CCCNC(=O)OCc1ccccc1)C(=O)OCc1ccccc1` (configuration not stated), the pEC50 is less than 4.08 and the negative-log IC50 (pIC50) is less than 4.08.

With `Cc1nc(-n2nc(-c3ccccc3)cc2-c2ccccc2)sc1C(/C=C/c1ccc([N+](=O)[O-])cc1)=N/NC(=O)c1ccncc1`, the pEC50 is less than 4.37 and the pIC50 is 4.43.

As for `Nc1cn(C2OC(CC(c3ccccc3)(c3ccccc3)c3ccccc3)C(O)C2O)c(=O)[nH]c1=O` (configuration not stated), the pEC50 was less than 3.86 and the negative logarithm of the IC50 (pIC50) was 4.54.

Turning to `Cc1no[n+]([O-])c1/C=N/NS(=O)(=O)c1ccccc1`, the pEC50 is less than 3.05 and the pIC50 is 3.39.

Turning to `CC1=CCC2(C#N)CCC1C2=O` (configuration not stated), the pEC50 was less than 3.60 and the pIC50 was less than 3.60.

For `Oc1cc(N2CCCC2)ccc1/C=N/N1C(=S)N(c2ccccc2)C(=Nc2ccccc2)C1=Nc1ccccc1`, the pEC50 was less than 4.00 and the pIC50 is less than 4.00.

For `Cc1ccc(NC(=O)C(=O)C2C(=O)N(c3ccccc3)N=C2N)cc1C` (configuration not stated), the result was inactive.

On to `O=C1/C(=C/c2ccc(Cl)cc2)NC(=S)N1CN1CCCCC1`, for which the pEC50 is less than 3.70 and the pIC50 is 4.55.

For `CC1NCCc2c1[nH]c1cc(O)ccc21` (configuration not stated), the pEC50 was less than 2.98 and the pIC50 was 3.80.

Turning to `Cc1sc(C)c2c1C(=O)CC2N` (configuration not stated), the pEC50 was less than 3.70 and the pIC50 was 5.01.

`CN1CCN(c2[nH]c(=O)n(-c3ccccc3)c(=S)c2C#N)CC1`: the pEC50 is less than 3.70 and the negative logarithm of the IC50 (pIC50) is less than 3.70.

As to `COc1cc2c(cc1OC)C(CC1=C(c3ccccc3)CN3CCc4cc(OC)c(OC)cc4C3C1)NCC2` (configuration not stated), the result was inactive.

On to `Cc1ccnc(NS(=O)(=O)c2ccc(N=Nc3cc4ccccc4c(C(=O)O)c3O)cc2)n1`, for which the pEC50 is less than 3.70 and the negative logarithm of the IC50 (pIC50) is 5.00.

For `Cc1nc(N)nc(N)c1CCCc1ccccc1`, the outcome was inactive.

In the case of `O=C(/C=C/c1ccccc1)NC1C=Nc2ccc(Cl)cc2NC1=O` (configuration not stated), the pEC50 is less than 3.70 and the negative logarithm of the IC50 (pIC50) was 4.59.

On to `CN1CC(C)(C)NC(=O)[C@@](C)(OCc2ccccc2)CN(C)CC(C)(C)NC(=O)[C@](C)(OCc2ccccc2)C1`, for which the pEC50 was less than 3.70 and the negative logarithm of the IC50 (pIC50) was 3.92.

Take `Cc1cc(O)c(C=O)c2c1C(=O)Oc1c(CO)c(O)c3c(c1O2)C(O)OC3=O` (configuration not stated): the pEC50 was less than 4.24 and the pIC50 was less than 4.24.

As to `FC(F)(F)C1(c2ccccc2)SCc2nc3ccccc3n21` (configuration not stated), the pEC50 was 4.11 and the pIC50 is 3.98.

With `COc1ccc(C2SCC(=O)N2N=C2NC(=O)CC(=O)N2)cc1` (configuration not stated), the pEC50 was less than 3.70 and the negative logarithm of the IC50 (pIC50) is less than 3.70.

As to `COC1CCC(=O)N1CCn1c(SCc2ccccc2)nc2ccccc21` (configuration not stated), the pEC50 is less than 4.03 and the pIC50 was less than 4.03.

With `CCOC(=O)c1c2c3c(cccc3[nH]c1=O)Sc1ncccc1-2`, the pEC50 was less than 3.70 and the negative logarithm of the IC50 (pIC50) is 4.80.

As for `CC(=O)OC1C(CN2CCOC2=O)OC(n2ccc(=O)[nH]c2=O)C1OC(C)=O` (configuration not stated), the pEC50 is less than 3.70 and the pIC50 is less than 3.70.

Regarding `CC(=O)OC/C=C/[C@H](O[Si](C)(C)C(C)(C)C)[C@@H](O)/C=C/COC(C)=O`, the pEC50 is less than 3.70 and the negative logarithm of the IC50 (pIC50) is 3.79.

Take `O=C1CCC(=O)N1n1c(Cc2ccccc2)n[nH]c1=O`: the pEC50 was less than 3.70 and the pIC50 is less than 3.70.

For the molecule `CC(C)CC1[C@@H](OCc2ccccc2)COS(=O)N1Cc1ccccc1` (some centres not stated), the pEC50 is less than 3.70 and the negative-log IC50 (pIC50) is 4.58.

`Cc1cc(S(=O)(=O)O)c(NC(=O)C(=O)C2C=CCS2(=O)=O)cc1Cl` (configuration not stated): the pEC50 is less than 3.20 and the pIC50 is less than 3.20.

Take `COc1ccc(NC(=O)CC(=O)N/N=C(\C)c2cc3ccccc3oc2=O)cc1`: the pEC50 is less than 3.70 and the negative-log IC50 (pIC50) was 3.99.

Consider `COc1cc(C(O)c2ccc3c(c2)OCO3)cc(OC)c1OC` (configuration not stated), for which the pEC50 was less than 3.70 and the pIC50 was 4.06.

As to `O=C1C2C3C=CC(O3)C2C(=O)N1/N=C/c1ccc2c(c1)OCO2` (configuration not stated), the pEC50 was less than 3.70 and the negative logarithm of the IC50 (pIC50) is less than 3.70.
